Data reported in patent publication EP1039902B1, “INHIBITORS OF GAP JUNCTION COMMUNICATION” (THE SCRIPPS RESEARCH INSTITUTE, priority 1997, dated 1999).
Entries after “also recorded” stand apart in the source; their conditions may differ.

Key:
[1] = animals, ip or iv injection; cited from earlier work
BHK/β1 cells = experiment: Gap junction dye transfer between β1 connexin-transfected BHK cells; assay type: cell-based, baby hamster
Description: (§1) Rat glial cells (Suter et al., 1987) obtained from Dr. Trosko's laboratory were cultured in standard plastic tissue cultureware in Richter's Improved Minimal Essential Medium (Irvine Scientific, Santa Ana, CA), supplemented with 10% fetal calf serum and 50 µg/ml gentamicin sulfate, and incubated in a humidified atmosphere of 95% air/5% CO2 at 37°C. The cells were passaged by trypsinization and used at passages 4-8. BHK (baby hamster kidney) cells that were stably transfected with a β1 connexin cDNA (Kumar et al., 1995) were cultured in DMEM medium supplemented with 5% fetal calf serum and 50 µg/ml gentamicin sulfate, and incubated in a humidified atmosphere of 95% air/5% CO2 at 37° C. In order to induce β1 connexin expression in the BHK cells, 100 µM zinc acetate was added to culture medium for 8-18 hours when the cell culture was about 90% confluent.
(§2) Gap junctional communication in glial cell and BHK/β1 cell cultures was assayed by microinjection of 5% Lucifer yellow CH dye in 0.1 M LiCl solution, and quantitated by determining the number of directly adjacent, neighboring cells that received dye (dye-coupling). Micropipettes were loaded with the dye solution by backfilling. Cells were visualized using a Nikon Diaphot inverted phase contrast/ epifluorescent microscope, and impaled with dye-filled micropipettes using an Eppendorf microinjector (model 5246). Five minutes after dye-injection, the transfer of dye to directly adjacent cells was determined using epifluorescent illumination. For each treatment condition, ten cells were microinjected in each of three dishes, the total number of dye-coupled neighboring cells was calculated and compared to determine the % dye-coupling. For scrape loading measurements, Lucifer yellow CH (0.05% dye in PBS) was loaded intracellularly by cutting or scraping cells in the monolayer with a sharp knife. The dye solution was left in the dish for 90 seconds, then the solution was discarded, and the dish subsequently washed with PBS. The cells were examined for dye transfer with an inverted epifluorescence microscope, and the degree of communication was assessed by determining the extent of Lucifer yellow transfer into contiguous cells.

α1 connexin = experiment: Immunoblotting of α1 connexin phosphorylation isoforms; assay type: cell-based, rat
Description: Plasma membrane fractions containing gap junctions were obtained after hypotonic alkali extraction of the glial cells. The extracted protein was dissolved in 2% SDS and the total protein was determined using the Bio-Rad DC Protein Assay kit (Bio-Rad Corp.). 10 µg of protein was electrophoresed by 10% SDS-PAGE, and subsequently blotted electrophoretically on to Immobilon-P membranes (Millipore Corp.). Gap junction protein was detected using anti-α1 connexin polyclonal rabbit antibodies, and the HRP/Chemiluminescence detection kit (Amersham Corp.) following the manufacturer's instructions.

rat glial cells [2] = experiment: Gap junction electrical coupling assay (double whole cell patch recording); assay type: cell-based; details: 50 µM
Description: Junctional conductance was measured using double whole cell patch recording performed on pairs of rat glial cells as described (Miller et al., (1992) J Mem. Biol. 128, 91-102) with a pipette solution of (in […]): Kaspartate 160, EGTA 10, CaCl2 2, HEPES 10 (pH 7.2), ATP 4. The external solution contained (in mM): NaCl 160, KCl 4.5, CaCl2 2, MgCl2 1, HEPES 10, pH 7.4. Both cells were held at -40 mV and pulses to -20 mV were alternately applied to each cell. Holding currents were subtracted in the records shown. Cells that were examined were generally in contact with other cells. The electrical conductance was calculated as the junctional current divided by 20 mV. All dye-coupling and conductance studies were performed at room temperature.

rat glial cells [3] = experiment: Calcium wave propagation (Fluo-3, mechanical stimulation); assay type: cell-based
Description: Rat glial cells were loaded with 5 µM Fluo-3/AM (Calbiochem) in Hank's balanced salt solution containing 25 mM HEPES buffer (HBSS/HEPES) for 1 hour, at which point the loading buffer was exchanged for new HBSS/HEPES buffer. The cell cultures were then left at room temperature for at least 30 minutes. Mechanical stimulation of a single cell was performed as follows: a glass micropipette (tip diameter of approximately 0.5 µm) was micro-manipulated downward on to a single cell causing a transient deformation of the cell membrane. The calcium image was then examined with an inverted fluorescence microscope, and photographed with a digital fluorescence microscope (excitation = 506 nm, emmision = 526 nm). The degree of calcium wave propagation was quantitated by counting at different time points the number of transmitting cells in one linear direction away from the stimulated cell. Junctional dye transfer rates were simultaneously examined by microinjection of Lucifer yellow CH in the same dishes; the methods for dye transfer assay was described in assay procedures, gap junction dye coupling assays. For calcium wave and dye transfer studies, the drug was preincubated with the glial cells for 10 minutes, and the drug was left in the experimental solution throughout the examination. All measurements were performed at room temperature.

[4] = test system: mammalian myocardial cells; experiment: Gap junctional communication between myocardial cells (preliminary analysis); assay type: cell-based; details: unpublished observations
[5] = test system: rat glial cell gap junction; experiment: Gap junction dye coupling assay (Lucifer yellow dye transfer; microinjection or scrape loading); assay type: cell-based
Description: as §1, §2

## CCCCCCCC/C=C\CCCCCCCC(N)=O [oleamide, cis-9-octadecenamide]
[1]
  induction of physiological sleep: induce physiological sleep
BHK/β1 cells; 50 µM for 10 min
  effect on dye transfer: no dye transfer
BHK/β1 cells; 50 µM for 10 min, listed as Oleamide
  effect on dye transfer: rapidly and completely block dye transfer
BHK/β1 cells; 50 µM, 4 hours of treatment
  effect on dye transfer: completely blocked dye transfer
BHK/β1 cells; 50 µM, 4 hours of treatment, zinc induced sample
  dye transfer: 0.31 ± 0.24%
α1 connexin; 50 µM, 4 hours
  α1 connexin phosphorylation profile (P2 isoform): dramatic loss of the P2 isoform
α1 connexin; removal of oleamide, normal culture media for 4 hours
  reversibility of the effect on the α1 phosphorylation profile: proved reversible
Rat glial cells [2]
  junctional electrical coupling: completely blocked; also recorded: completely uncoupled
  residual junctional conductance (upper limit): less than 50 pS
Rat glial cells [2]; n=5
  mean junctional conductance: 0.5 ± 0.7 nS
Rat glial cells [3]
  mechanically-stimulated or glutamate-induced calcium wave propagation: no inhibitory effect
Rat glial cells [3]; 50 µM, preincubation from 10 minutes to 4 hours
  mechanically-induced calcium wave propagation: no impact; also recorded: indistinguishable manner from control cell populations
[4]
  sensitivity of gap junctional communication to the inhibitory action: not as sensitive
[5]; 20 µM, preincubation 4 h
  inhibition of glial cell dye transfer: significantly inhibited
[5]; 50 µM for 10 min
  block of intercellular dye transfer, microinjected Lucifer yellow: completely blocked intercellular dye transfer
[5]; 50 µM, 4 h prior to injection of Lucifer yellow (dose-response)
  inhibition of dye transfer: complete inhibition
[5]; 50 µM, then fresh media without oleamide
  recovery of dye transfer after removal of oleamide: Complete recovery of dye transfer to control levels was observed within one hour
[5]; Rattus norvegicus, Glial cell, read-out: inhibition of dye transfer
  inhibition at 20 µM: ~50%
[5]; continually exposed for up to 24 h
  restoration of dye-coupling under continual exposure: no restoration of dye-coupling
[5]; culture media changed
  time for junctional communication to recover to control levels after removal of oleamide: ≤ 1 h
[5]; result in words, concentration not stated at the place
  inhibition of gap junction-mediated dye transfer: most potent inhibitor
[5]; scrape loaded cells, pretreatment with oleamide
  dye transfer after scrape loading with Lucifer yellow: fully abrogated; also recorded: no dye spread to adjacent cells
